According to ChEMBL document CHEMBL5528022, “Discovery of a brain-permeable bromodomain and extra terminal domain (BET) inhibitor with selectivity for BD1 for the treatment of multiple sclerosis” (Eur J Med Chem, 2024):
Values after ≈ are worked out from the molar mass of the structure shown. Active and inactive are the calls of the source. The calls are words filed in the database; no cut-off is given here.

Columns and labels:
[1] = target: T1, Bromodomain-containing protein 4 (Homo sapiens, UniProt O60885); experiment: Binding affinity to BRD4 BD2 (unknown origin) expressed in Escherichia coli BL21 (DE3) at 1:1 protein:compound ratio by MST assay
[2] = Selectivity ratio of Kd for binding affinity to BRD4 BD2 (unknown origin) by MST assay to Kd for binding affinity to BRD4 BD1 (unknown origin) by MST assay
[3] = target: T1, Bromodomain-containing protein 4; experiment: Binding affinity to BRD4 BD1 (unknown origin) expressed in Escherichia coli BL21 (DE3) at 1:1 protein:compound ratio by MST assay
[4] = test system: Mus musculus; experiment: (§1) Anti-inflammatory activity in complete Freund's adjuvant/MOG (35 to 55 residues)/pertussis toxin-induced experimental autoimmune encephalomyelitis C57BL/6 mouse model assessed as change in cumulative scores at 30 to 60 mg/kg, ip qd administered 6 days post immunization and measured every 3 days for 28 days post immunization; format: functional, organism-based; settings: dose 30-60 mg/kg, time 22.0 day
[5] = target: T2, Bromodomain-containing protein 3 (Homo sapiens, UniProt Q15059); experiment: Inhibition of BRD3 BD2 (unknown origin) incubated for 15 mins by HTRF method
T2 sequence (Q15059 whole entry): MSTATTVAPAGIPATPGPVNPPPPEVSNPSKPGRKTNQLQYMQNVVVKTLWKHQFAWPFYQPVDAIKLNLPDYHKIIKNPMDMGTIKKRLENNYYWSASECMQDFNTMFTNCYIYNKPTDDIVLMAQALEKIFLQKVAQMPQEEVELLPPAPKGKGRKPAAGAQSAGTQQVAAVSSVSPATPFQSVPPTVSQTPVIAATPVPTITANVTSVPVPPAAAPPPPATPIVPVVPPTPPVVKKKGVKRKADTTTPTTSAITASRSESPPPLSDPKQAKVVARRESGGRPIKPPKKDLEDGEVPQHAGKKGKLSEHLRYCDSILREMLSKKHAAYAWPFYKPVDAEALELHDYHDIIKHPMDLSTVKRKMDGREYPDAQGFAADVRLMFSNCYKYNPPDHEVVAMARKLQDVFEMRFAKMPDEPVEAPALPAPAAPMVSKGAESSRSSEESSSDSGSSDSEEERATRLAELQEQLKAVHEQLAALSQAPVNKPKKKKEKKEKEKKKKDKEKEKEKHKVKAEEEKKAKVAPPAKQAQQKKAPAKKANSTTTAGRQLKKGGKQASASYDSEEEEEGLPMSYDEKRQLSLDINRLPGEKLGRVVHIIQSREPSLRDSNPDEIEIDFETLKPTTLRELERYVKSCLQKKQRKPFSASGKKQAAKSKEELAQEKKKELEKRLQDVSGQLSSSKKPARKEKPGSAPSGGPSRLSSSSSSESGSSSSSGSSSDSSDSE

[6] = target: T1, Bromodomain-containing protein 4; experiment: Binding affinity to BRD4 BD2 (unknown origin) assessed as change in enthalpy by ITC method
[7] = Tmax in Sprague-Dawley rat at 25 mg/kg, ip measured upto 25 hrs by LC-MS/MS analysis; format: ADME, organism-based; settings: in vivo
[8] = Cmax in C57BL/6 mouse brain at 5 mg/kg, iv measured upto 25 hrs by LC-MS/MS analysis; format: ADME, organism-based
[9] = Cmax in C57BL/6 mouse spinal cord at 5 mg/kg, iv measured upto 25 hrs by LC-MS/MS analysis; format: ADME, organism-based
[10] = Half life in Sprague-Dawley rat at 5 mg/kg, iv measured upto 25 hrs by LC-MS/MS analysis; format: ADME, organism-based; settings: in vivo
[11] = Selectivity ratio of IC50 for inhibition of BRD3 BD2 (unknown origin) to IC50 for inhibition of BRD3 BD1 (unknown origin)
[12] = target: T3, Bromodomain testis-specific protein (Homo sapiens, UniProt Q58F21); experiment: Inhibition of BRDT BD2 (unknown origin) incubated for 15 mins by HTRF method
[13] = Selectivity ratio of IC50 for inhibition of BRDT BD2 (unknown origin) to IC50 for inhibition of BRDT BD1 (unknown origin)
[14] = Selectivity ratio of IC50 for inhibition of BRD4 BD2 (unknown origin) to IC50 for inhibition of BRD4 BD1 (unknown origin)
[15] = Toxicity in C57BL/6 mouse model of experimental autoimmune encephalomyelitis assessed as body weight loss at 30 to 60 mg/kg, ip administered 6 days post immunization and measured every 3 days for 28 days post immunization; format: organism-based; settings: in vivo, 528 h, dose 30-60 mg/kg, time 22 day
[16] = Solubility in water by HPLC analysis; format: physicochemical
[17] = test system: Mus musculus; experiment: Anti-inflammatory activity in complete Freund's adjuvant/MOG (35 to 55 residues)/pertussis toxin-induced experimental autoimmune encephalomyelitis C57BL/6 mouse model assessed as myelin density at 60 mg/kg, ip qd administered 6 days post immunization and measured every 3 days for 28 days post immunization by Luxol fast blue staining based bright field fluorescence microscopic analysis; format: functional, organism-based; settings: time 22.0 day
[18] = Mean residence time in Sprague-Dawley rat at 25 mg/kg, ip measured upto 25 hrs by LC-MS/MS analysis; format: ADME, organism-based; settings: in vivo
[19] = Unbound drug level in ICR mouse brain incubated for 5 hrs by equilibrium dialysis method; format: ADME, tissue-based
[20] = Cmax in C57BL/6 mouse blood at 5 mg/kg, iv measured upto 25 hrs by LC-MS/MS analysis; format: ADME, organism-based
[21] = target: T1, Bromodomain-containing protein 4; experiment: Binding affinity to BRD4 BD1 (unknown origin) expressed in Escherichia coli BL21 (DE3) by ITC assay
[22] = Bioavailability in Sprague-Dawley rat at 25 mg/kg, ip measured upto 25 hrs by LC-MS/MS analysis; format: ADME, organism-based; settings: in vivo
[23] = Cmax in Sprague-Dawley rat at 25 mg/kg, ip measured upto 25 hrs by LC-MS/MS analysis; format: ADME, organism-based; settings: in vivo
[24] = Mean residence time in Sprague-Dawley rat at 5 mg/kg, iv measured upto 25 hrs by LC-MS/MS analysis; format: ADME, organism-based; settings: in vivo
[25] = Half life in Sprague-Dawley rat at 25 mg/kg, po measured upto 25 hrs by LC-MS/MS analysis; format: ADME, organism-based; settings: in vivo
[26] = Mean residence time in Sprague-Dawley rat at 25 mg/kg, po measured upto 25 hrs by LC-MS/MS analysis; format: ADME, organism-based; settings: in vivo
[27] = Selectivity ratio of IC50 for inhibition of BRD2 BD2 (unknown origin) to IC50 for inhibition of BRD2 BD1 (unknown origin)
[28] = Lipophilicity, logD of compound at pH 7.4 by LC-MS/MS based shake bottle method; format: physicochemical; settings: buffer
[29] = target: T1, Bromodomain-containing protein 4; experiment: Binding affinity to BRD4 BD2 (unknown origin) expressed in Escherichia coli BL21 (DE3) by ITC assay
[30] = test system: Mus musculus; experiment: Anti-inflammatory activity in complete Freund's adjuvant/MOG (35 to 55 residues)/pertussis toxin-induced experimental autoimmune encephalomyelitis C57BL/6 mouse model assessed as appearance of normal myelin structure at 30 to 60 mg/kg, ip qd administered 6 days post immunization and measured every 3 days for 28 days post immunization by Luxol fast blue staining based bright field fluorescence microscopic analysis; format: functional, organism-based; settings: dose 30-60 mg/kg, time 22.0 day
[31] = target: T1, Bromodomain-containing protein 4; experiment: Binding affinity to BRD4 BD2 (unknown origin) assessed as change in gibbs free energy by ITC method
[32] = Oral bioavailability in Sprague-Dawley rat at 25 mg/kg measured upto 25 hrs by LC-MS/MS analysis; format: ADME, organism-based; settings: in vivo
[33] = Stability in rat liver microsomes assessed as intrinsic clearance; format: ADME, Microsome; settings: read-out: CLH
[34] = Selectivity ratio of Kd for binding affinity to BRD4 BD2 (unknown origin) by ITC assay to Kd for binding affinity to BRD4 BD1 (unknown origin) by ITC assay
[35] = Toxicity in C57BL/6 mouse model of experimental autoimmune encephalomyelitis assessed as animal death at 30 to 60 mg/kg, ip administered 6 days post immunization and measured every 3 days for 28 days post immunization; format: organism-based; settings: in vivo, 144 h, dose 30-60 mg/kg, time 6 day
[36] = Cmax in Sprague-Dawley rat at 25 mg/kg, po measured upto 25 hrs by LC-MS/MS analysis; format: ADME, organism-based; settings: in vivo
[37] = test system: Mus musculus; experiment: as §1, with “reduction” for “change”, “TNF-alpha level” for “cumulative scores”; format: functional, organism-based; settings: dose 30-60 mg/kg, time 22.0 day
[38] = target: T4, Bromodomain-containing protein 2 (Homo sapiens, UniProt P25440); experiment: Inhibition of BRD2 BD1 (unknown origin) incubated for 15 mins by HTRF method
T4 sequence (P25440 whole entry): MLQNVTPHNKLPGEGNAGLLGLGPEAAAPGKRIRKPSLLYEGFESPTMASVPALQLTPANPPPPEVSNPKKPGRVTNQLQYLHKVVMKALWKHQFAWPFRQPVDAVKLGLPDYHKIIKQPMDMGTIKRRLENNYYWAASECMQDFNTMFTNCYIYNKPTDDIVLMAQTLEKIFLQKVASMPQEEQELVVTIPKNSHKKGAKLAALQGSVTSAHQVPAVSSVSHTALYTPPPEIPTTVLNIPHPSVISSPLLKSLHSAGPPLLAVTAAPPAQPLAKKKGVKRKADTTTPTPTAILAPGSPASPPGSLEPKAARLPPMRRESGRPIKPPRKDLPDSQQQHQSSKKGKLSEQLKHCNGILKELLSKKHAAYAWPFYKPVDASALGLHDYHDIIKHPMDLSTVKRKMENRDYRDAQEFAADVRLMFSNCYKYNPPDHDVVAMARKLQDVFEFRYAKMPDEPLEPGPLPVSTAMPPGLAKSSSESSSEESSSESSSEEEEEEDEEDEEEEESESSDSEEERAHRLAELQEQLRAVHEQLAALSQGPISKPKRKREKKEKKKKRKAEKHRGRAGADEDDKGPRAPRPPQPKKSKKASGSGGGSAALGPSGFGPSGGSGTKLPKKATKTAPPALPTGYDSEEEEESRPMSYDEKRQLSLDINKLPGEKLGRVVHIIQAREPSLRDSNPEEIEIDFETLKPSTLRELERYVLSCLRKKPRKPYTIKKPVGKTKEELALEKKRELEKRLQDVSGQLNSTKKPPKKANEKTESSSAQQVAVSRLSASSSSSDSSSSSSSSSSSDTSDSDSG

[39] = target: T1, Bromodomain-containing protein 4; experiment: Binding affinity to BRD4 BD1 (unknown origin) assessed as change in gibbs free energy by ITC method
[40] = Tmax in Sprague-Dawley rat at 25 mg/kg, po measured upto 25 hrs by LC-MS/MS analysis; format: ADME, organism-based; settings: in vivo
[41] = target: T1, Bromodomain-containing protein 4; experiment: Binding affinity to BRD4 BD2 (unknown origin) assessed as change in entropy by ITC method
[42] = Half life in Sprague-Dawley rat at 25 mg/kg, ip measured upto 25 hrs by LC-MS/MS analysis; format: ADME, organism-based; settings: in vivo
[43] = target: T1, Bromodomain-containing protein 4; experiment: Binding affinity to BRD4 BD1 (unknown origin) assessed as change in enthalpy by ITC method
[44] = target: T1, Bromodomain-containing protein 4; experiment: Binding affinity to BRD4 BD1 (unknown origin) assessed as change in entropy by ITC method
[45] = Tmax in C57BL/6 mouse brain at 5 mg/kg, iv measured upto 25 hrs by LC-MS/MS analysis; format: ADME, organism-based
[46] = test system: Mus musculus; experiment: as §1, with “reduction” for “change”, “IL-6 level” for “cumulative scores”; format: functional, organism-based; settings: dose 30-60 mg/kg, time 22.0 day
[47] = target: T1, Bromodomain-containing protein 4; experiment: Inhibition of BRD4 BD2 (unknown origin) incubated for 15 mins by HTRF method
[48] = target: T3, Bromodomain testis-specific protein; experiment: Inhibition of BRDT BD1 (unknown origin) incubated for 15 mins by HTRF method
[49] = target: T1, Bromodomain-containing protein 4; experiment: Inhibition of BRD4 BD1 (unknown origin) incubated for 15 mins by HTRF method
[50] = target: T2, Bromodomain-containing protein 3; experiment: Inhibition of BRD3 BD1 (unknown origin) incubated for 15 mins by HTRF method
[51] = test system: Mus musculus; experiment: as §1, with “reduction” for “change”, “clinical” for “cumulative”; format: functional, organism-based; settings: dose 30-60 mg/kg, time 22.0 day
[52] = Tmax in C57BL/6 mouse spinal cord at 5 mg/kg, iv measured upto 25 hrs by LC-MS/MS analysis; format: ADME, organism-based
[53] = target: T4, Bromodomain-containing protein 2; experiment: Inhibition of BRD2 BD2 (unknown origin) incubated for 15 mins by HTRF method
[54] = Cmax in Sprague-Dawley rat at 5 mg/kg, iv measured upto 25 hrs by LC-MS/MS analysis; format: ADME, organism-based; settings: in vivo
[55] = Stability in rat liver microsomes assessed as half life; format: ADME, Microsome
[56] = Free maximum concentration of drug in ICR mouse brain; format: ADME, tissue-based
[57] = test system: Microglia; experiment: Antiinflammatory activity against LPS induced neonatal rat cerebral cortex microglia by immunofluorescence assay; format: functional, cell-based

Cc1nn(C)cc1-c1cncc(-c2ccnc3nc[nH]c23)c1
Kd [1]: 28 µM
Selectivity ratio [2]: 42
Kd [3]: 0.66 µM

Cc1nn(CC2CC2)c(C)c1-c1cncc(-c2ccnc3nc[nH]c23)c1
Activity [4]: Active
IC50 [5]: 1.94 µM
deltaH [6]: -5.84 kcal/mol
Tmax [7]: 1 h
Cmax [8]: 7.91 µM
Cmax [9]: 3 µM
half-life [10]: 3.56 h
Kd [1]: 14 µM
Ratio IC50 [11]: 11
Selectivity ratio [2]: 60
IC50 [12]: 3.04 µM
Ratio IC50 [13]: 0.6
Ratio IC50 [14]: 28
Activity [15]: Non-Toxic
solubility [16]: 760 µg/mL (≈ 2210 µM)
Activity [17]: Active
Kd [3]: 0.23 µM
MRT [18]: 1.74 h
fraction unbound at 5 h [19]: 0.979
Cmax [20]: 17.2 µM
Kd [21]: 0.54 µM
bioavailability [22]: 121%
Cmax [23]: 89.4 µM
MRT [24]: 4.46 h
half-life [25]: 6.31 h
MRT [26]: 8.93 h
Ratio IC50 [27]: 4
logD [28]: 2.31
Kd [29]: 21 µM
Activity [30]: Active
deltaG [31]: -6.37 kcal/mol
bioavailability [32]: 22%
microsomal CLint [33]: 3.2 µL/min/mg
Selectivity ratio [34]: 38
Activity [35]: Non-Toxic
Cmax [36]: 7.15 µM
Activity [37]: Active
IC50 [38]: 0.498 µM
deltaG [39]: -8.55 kcal/mol
Tmax [40]: 0.25 h
TdeltaS [41]: -0.533 kcal/mol
half-life [42]: 3.53 h
deltaH [43]: -15.6 kcal/mol
TdeltaS [44]: 7.1 kcal/mol
Tmax [45]: 1 h
Activity [46]: Active
IC50 [47]: 4.84 µM
IC50 [48]: 4.75 µM
IC50 [49]: 0.176 µM
IC50 [50]: 0.183 µM
Activity [51]: Active
Tmax [52]: 1 h
IC50 [53]: 2.09 µM
Cmax [54]: 17.2 µM
half-life [55]: 3.7 h
fCmax [56]: 170 nM
Activity [57]: Active

Cc1nn(CC2CCCCC2)c(C)c1-c1cncc(-c2ccnc3nc[nH]c23)c1
Kd [1]: 9.3 µM
Selectivity ratio [2]: 30
Kd [3]: 0.3 µM

Cc1nn(C)c(C)c1-c1cncc(-c2ccnc3nc[nH]c23)c1
Kd [1]: 30 µM
Selectivity ratio [2]: 48
Kd [3]: 0.62 µM

CCn1nc(C)c(-c2cncc(-c3ccnc4nc[nH]c34)c2)c1C
Kd [1]: 16 µM
Selectivity ratio [2]: 34
Kd [3]: 0.48 µM

Cc1nn(CC2CCC2)c(C)c1-c1cncc(-c2ccnc3nc[nH]c23)c1
Kd [1]: 13 µM
Selectivity ratio [2]: 51
Kd [3]: 0.25 µM
